The record followed here is patent EP4678629A1, “IONIZABLE LIPID MOLECULE, PREPARATION METHOD THEREFOR AND USE THEREOF” (Maxirna (Shanghai) Pharmaceutical Co., Ltd., priority 2023, dated 2024).

Data set [1] is described as follows: Size and polydispersity index (PDI) of the lipid nanoparticle by dynamic light scattering. The format is physicochemical. Particulars: LNP encapsulating eGFP mRNA, ionizable lipid/DOPE/cholesterol/DMG-PEG2000 50/10/48.25/1.25 mol%, N/P 12; for Particle size: in nm (unit assumed). The method in brief:
(§1)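 LNPs were made by microfluidic mixing of ionizable lipid/DOPE/cholesterol/DMG-PEG2000 (50/10/48.25/1.25 mol%) in ethanol with eGFP mRNA in 20 mM citrate pH 6.1, N/P 12, then ultrafiltered into DPBS and 0.2 µm filtered. Size and PDI by DLS at 173° backscatter; encapsulation by Ribogreen.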

A short description of data set [2]: Encapsulation efficiency of the lipid nanoparticle (eGFP mRNA) by Ribogreen method. Type of data set: physicochemical. Particulars: LNP encapsulating eGFP mRNA, ionizable lipid/DOPE/cholesterol/DMG-PEG2000 50/10/48.25/1.25 mol%, N/P 12. The method in brief:
as §1

Data set [3] is described as follows: In vitro transfection of cells with eGFP-mRNA lipid nanoparticle (LNP preparation), fluorescence imaging and flow cytometry. Conditions: mouse, dc2.4 cells, 200 ng of mRNA per well, after 24 hours; read-out: Cell viability, %. Type of data set: cell-based, mouse. The essentials:
(§2)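 Mouse bone marrow-derived DC2.4 dendritic cells seeded at 2 × 10^5 cells/well in DMEM with 10% FBS, transfected with eGFP-mRNA LNPs the next day at 37 °C, 5% CO2. After 24 hours, viability, eGFP-positive rate and mean fluorescence intensity read by fluorescence imaging and flow cytometry.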
A general note: A flow cytometer gives signals particle by particle.

In data set [4] the test system is DC2.4 cells. The description is as above. Type of data set: cell-based, mouse. Particulars: eGFP positivity rate, DC2.4 cells, 200 ng of mRNA per well, after 24 hours. The essentials:
as §2

Usually viability stands for a per cent measure of how many cells are alive, often set against a control. In data set [1], `CCCCCCCCCCCOC(=O)CCCCCCCN(CCCCCCCC(=O)OCCCCCCCCCCC)CCCN(CCCO)CCCN(CCCCCCCC(=O)OCCCCCCCCCCC)CCCCCCCC(=O)OCCCCCCCCCCC` [Example 98, Tetraundecyl 8,8',8",8"-(((3-hydroxypropyl)azanediyl)di(propane-3,1-diyl))di(azanetriyl)tetraoctanoate] yielded a PDI of 0.14 and a Particle size of 89.51. Further, the “Encapsulation rate, %” value in data set [2] is 91.32%. In addition, in data set [3], the viability at 24 h amounted to 96.9%. The “Positive rate, %” value in data set [4] worked out at 92.36%.

Compound `CCCCCCCCCCCCCOC(=O)CCCN(CCCO)CCCCCN(CCCC(=O)OCCCCCCCCCCCCC)CCCC(=O)OCCCCCCCCCCCCC` [Example 100, 4,4'-ditridecyl((5-((3-hydroxypropyl)(4-oxo-4-(tridecyloxy)butyl)amino)pentyl)azetidinyl)dibutanoate] gave a PDI in data set [1] of 0.16. For the same compound, in data set [2], the “Encapsulation rate, %” value worked out at 92.32%. Further, in data set [3], the viability at 24 h came to 99%. For the same compound, in data set [4], the “Positive rate, %” value was determined as 93.24%.

`CCCCCCCCCCCCCOC(=O)CCCN(CCCO)CCCCN(CCCC(=O)OCCCCCCCCCCCCC)CCCC(=O)OCCCCCCCCCCCCC` [Example 101, 4,4'-ditridecyl((4-((3-hydroxypropyl)(4-oxo-4-(tridecyloxy)butyl)amino)butyl)azetidinyl)dibutanoate] yielded a PDI in data set [1] of 0.14. The “Encapsulation rate, %” value in data set [2] is 92.68%. Besides, in data set [3], the viability at 24 h was 93.4%. In addition, the “Positive rate, %” value in data set [4] amounted to 94.85%.

On to `CCCCCCCCCCCCOC(=O)CCCN(CCCO)CCCCN(CCCC(=O)OCCCCCCCCCCCC)CCCC(=O)OCCCCCCCCCCCC` [Example 103], for which, in data set [1], the PDI came to 0.14 and the Particle size was found to be 94.10. Besides, in data set [2], the “Encapsulation rate, %” value was 94.31%. Also, the viability at 24 h in data set [3] worked out at 95.3%. Further, the “Positive rate, %” value in data set [4] is recorded as 93.80%.

Take `CCCCC/C=C\C/C=C\CCCCCCCCOC(=O)CCCN(CCCO)CCCCN(CCCC(=O)OCCCCCCCC/C=C\C/C=C\CCCCC)CCCC(=O)OCCCCCCCC/C=C\C/C=C\CCCCC` [Example 104]: in data set [1], the PDI is on record as 0.16. Further, the “Encapsulation rate, %” value in data set [2] came to 95.12%. Also, in data set [3], the viability at 24 h was determined as 96.7%. Also, in data set [4], the “Positive rate, %” value is given as 92.63%.

Regarding `CCCCCCCCCCCOC(=O)/C=C/CN(C/C=C/C(=O)OCCCCCCCCCCC)CCCN(C/C=C/C(=O)OCCCCCCCCCCC)CCCO` [Example 106], in data set [1], the PDI came out at 0.28. In addition, in data set [2], the “Encapsulation rate, %” value was 65.99%. In addition, in data set [3], the viability at 24 h was determined as 93.9%. Further, the “Positive rate, %” value in data set [4] is listed as 78.77%.

`CCCCCCCCCCCOC(=O)CCCCN(CCO)CCCN(CCCCC(=O)OCCCCCCCCCCC)CCCCC(=O)OCCCCCCCCCCC` [Example 107] gave a PDI in data set [1] of 0.13. Further, in data set [2], the “Encapsulation rate, %” value worked out at 95.47%. Further, in data set [3], the viability at 24 h came to 92.9%. In data set [4], the “Positive rate, %” value worked out at 92.10%.

Regarding `CCCCC/C=C\C/C=C\CCCCCCCCOC(=O)CCCN(CCCO)CCCN(CCCC(=O)OCCCCCCCC/C=C\C/C=C\CCCCC)CCCC(=O)OCCCCCCCC/C=C\C/C=C\CCCCC` [Example 108], in data set [1], the PDI was determined as 0.13 and the Particle size came out at 95.34. For the same compound, in data set [2], the “Encapsulation rate, %” value is listed as 92.30%. Also, the viability at 24 h in data set [3] stood at 92.3%. The “Positive rate, %” value in data set [4] amounted to 93.99%.

The compound `CCCCCCCCCCCOC(=O)CCCN(CCO)CCCN(CCCC(=O)OCCCCCCCCCCC)C(=O)CCC(=O)OCCCCCCCCCCC` [Example 109] had a PDI in data set [1] of 0.33. Moreover, the “Encapsulation rate, %” value in data set [2] worked out at 79.70%. Moreover, the viability at 24 h in data set [3] is 89%. Also, in data set [4], the “Positive rate, %” value is 71.17%.

As for `CCCCC/C=C\C/C=C\CCCCCCCCOC(=O)CCCCN(CCCO)CCCN(CCCCC(=O)OCCCCCCCC/C=C\C/C=C\CCCCC)CCCCC(=O)OCCCCCCCC/C=C\C/C=C\CCCCC` [Example 111], in data set [1], the PDI came to 0.12 and the Particle size was 96.92. Further, in data set [2], the “Encapsulation rate, %” value is 92.91%. Besides, in data set [3], the viability at 24 h came to 91%. Moreover, the “Positive rate, %” value in data set [4] is 95.82%.
